The text below walks through data of patent US12296023B2, “Chemically and photochemically initiated cell membrane blebbing to induce cell vesicle production, modifications thereof, and uses thereof” (The Regents of the University of California, priority 2018, dated 2025).

The test system of assay [1] is HeLa cells. The assay can be described thus: N-ethylmaleimide induced cell vesicle production time course. The assay is classed as cell-based, human. To be noted: 2 mM NEM in 1×DPBS; 1 h, 3 h, 5 h, 8 h, 24 h. As to the method:
Protocol for N-ethylmaleimide induced cell vesicle production: HeLa cells were plated at 70% confluency (6×10^6 cells/100 mm cell culture plate) and incubated for 4 h at 37° C. and 5% CO2. Media was removed and cells were washed three times with 10 mL of 1×DPBS. […] Cells were imaged using a standard inverted light microscope and DPBS solution containing ICVs were collected, isolated, and analyzed by dynamic light scattering (DLS) for size.
Protocol for nano- and microscale induce cell vesicle isolation: Cells and debris were removed by centrifugation at 1200 rpm for 5.5 min, repeated three times, each time collecting supernatant into a clean tube. Then, mICVs were isolated from the supernatant by centrifugation at 16,000×g for 10 min. After the first spin, supernatant was collected for nICV isolation while micro ICV pellets were washed with 1×DPBS. This was repeated two additional times, discarding supernatant and washing the mICV pellet with 1×DPBS. nICVs were isolated using 100 kDa Amicon® ultrafiltration at 3300×g for 15 min, repeated three times with 1×DPBS washes. Final mICVs and nICVs collected were suspended in 100 uL 1×DPBS and then characterized.
(§1) Characterization of mICVs and nICVs: mICVs and nICVs were imaged using a bright field microscope and inverted light microscope. The sizing of produced ICVs were measured by using dynamic light scattering (DLS). […]

The subject of a further assay is AAV isolate from lysate. The assay can be described thus: Transduction of NEM-treated AAV from producer cell lysate. The class given is cell-based, AAV2.
In the next assay the test system is stock AAV. The assay can be described thus: Transduction of NEM-treated stock AAV. The assay is classed as cell-based, AAV2.
In another assay the test system is E.G7-OVA cells. The assay can be described thus: Tumor challenge study after vaccination. The assay is classed as in vivo, C57BL/6 mice. The note with it: for tumor growth: s.c. vaccination plus booster, 300,000 E.G7-OVA cells s.c.; for survival: tumor challenge. How it is done: Tumor challenge study. 12 wk.-old C57BL/6 mice (Charles River Laboratories, Wilmington, MA) were vaccinated by s.c. injection with DPBS, OVA protein, SIINFEKL peptide, SIINFEKL-presenting BDMCs, or SIINFEKL-presenting BMDC mICVs. With the exception of the control (DPBS) group, each group received vaccinations that were equivalent to a dosage of 100 μL of 50 μM SIINFEKL as quantified by CPRG assay. Vaccinations were given twice 14 days apart. 7 days after the second injection, mice were injected s.c. with 300,000 E.G7-OVA cells in the right flank. Tumor growth was monitored by measuring the tumor size with calipers every 48 h.
Mice received a single vaccination followed by a booster vaccination two weeks later). Seven days after completion of a vaccination schedule. mice were challenged with E.G7-OVA cells and tumor growth was assessed over four weeks. FIG. 72 provides images from Day 30 of the tumor challenge with mice by vaccine category. […] The foregoing tumor challenge result indicates promise for use of antigenic ICVs as effective cancer vaccines.

For assay [2], the system named is HeLa cells. The assay can be described thus: AlPcS2A photoinitiated induced cell vesicle production (670 nm laser). The class given is cell-based, human. The note with it: 1 ug/mL for 24 h then light, vs light alone. How it is done: Protocol for Photoinitiated induced cell vesicle production: HeLa cells were plated at 70% confluency (6×10^6 cells/100 mm cell culture plate) and incubated for 4 h at 37° C. and 5% CO2. Cells were then imaged to confirm adherence to the plate and, in the dark, media was changed to media containing 1 ug/mL of the photosensitizer aluminum disulfonated phthalocyanine (AlPcS2A) (10 mL of photosensitizer media per 100 mm each plate). Plates were wrapped in tinfoil and allowed to incubate for 24 h at 37° C. and 5% CO2. In the dark, the photosensitive media was removed and cells were washed three times with 10 mL of 1×DPBS. Then, 6 mL of 1×DPBS was added to each 100 mm plate and the plates were subjected to a 670 nm laser for varying time doses (10 min, 5 min, 2.5 min, 1.25 min). Cells were imaged using a standard inverted light microscope, and the DPBS solution containing ICVs was collected. 6 mL of fresh 1×DPBS was added to each 100 mm plate and the plates were incubated at 37° C. and 5% CO2 for 18 h to investigate ICV formation effects over time. Cells were imaged using a standard inverted light microscope and the DPBS solution containing ICVs was collected. […]
as §1

For `CCN1C(=O)C=CC1=O` [NEM, N-ethylmaleimide], the “formation of nICVs” value with HeLa cells [1] was “induced the formation of nICVs at each time point”. Moreover, the results for the “transduction of AAV isolate from lysate” value in the assay with AAV isolate from lysate (NEM exposure 8 hours vs 0-minute timepoint) and in the assay on AAV isolate from lysate (NEM exposure up to 4 hours) were “about half the transduction” and “only a minimal drop in transduction”, respectively. Also, the “stock AAV transduction efficiency” value in the assay with stock AAV (NEM incubation 10 minutes) is “reducing the transduction efficiency”. The “stock AAV transduction” value in the assay with stock AAV (NEM incubation 2 hours) was “almost no transduction”.

On to OVA: OVA protein vaccination control, for which, in the assay on E.G7-OVA cells, the tumor growth result is given as “rapidly developed tumors” and the survival result is recorded as “died prior to day 35”.

With “SIINFEKL [antigen peptide vaccination control]”, in the assay on E.G7-OVA cells, the tumor growth entry is given as “rapidly developed tumors” and the survival entry is “died prior to day 35”.

As to “aluminum disulfonated phthalocyanine [AlPcS2A]”, the “yield of nICVs and mICVs” value in the assay with HeLa cells [2] is “greatly increased the yield of nICVs and mICVs”.
